Measurements reported in patent publication US10710978B2, “STK4 inhibitors for treatment of hematologic malignancies” (Dana-Farber Cancer Institute, Inc., priority 2015, dated 2020).
Values joined by “and” are separate entries in the source; they are usually repeats but may differ in a detail not shown here. Equal values may be shown once. Read-outs that look alike come from different tables or passages of the source.

Assays:
STK3 (MST2) = STK3 (MST2) (Homo sapiens (Human), UniProt Q13188); experiment: Z-lyte biochemical IC50 assay (Invitrogen); conditions: ATP concentration matched the Km
p-MOB1 = experiment: Western blotting; format: cell-based; conditions: MM.1S cells, 1 μM and 10 μM, 6 hours
Excerpt: MM.1S, KMS20 and H929 cells are counted, diluted and plated. Cells are then […] with DMSO or different concentration of a compound of the present application for 6 hrs, 24 hrs or 48 hrs. MM cells are then collected and centrifuged at RT and the pellets are re-suspended in lysis buffer. Cell lysates are subjected to sodium dodecyl sulfate-polyacrylamide gel electrophoresis SDS-PAGE, transferred to nitrocellulose membranes, and immunoblotted with different antibodies.
MM.1S, KMS20 and H929 cells were counted, diluted and plated in six-well plates to a final concentration of 500,000 cells/well. Cells were then […] with DMSO or different concentration of a compound of the present application for 6 hrs, 24 hrs or 48 hrs. MM cells were then collected and centrifuged for 5 min, 1300 rpm at RT. The pellets were re-suspended in lysis buffer Laemli 1× (Laemli 5×: SDS 10%, DTT 500 mM, Tris-HCl pH6.8 0.4M, BromoFenol Blue, Glycerol 50%). Cell lysates were subjected to sodium dodecyl sulfate-polyacrylamide gel electrophoresis SDS-PAGE, transferred to nitrocellulose membranes, and immunoblotted with different antibodies: YAP1 (#4912), p-YAP1 (S127) (#13008), LATS1 (#9153), p-LATS1 (Thr1079) (#8654), MOB1 (#3863), p-MOB1 (Thr12) (#8843), p-MST1/p-MST2 (Thr183/Thr180) (#3681), p21 (#2947), PARP (#9532), ERK, STAT, and GAPDH (#5174) from Cell Signaling, Beverly, Mass., United States; STK4 (ab57836) (from Abcam, Cambridge, Mass., United States); PUMA (sc-28226), BAX (sc-20067), from Santa Cruz, Dallas, Tex., United States; β-actin from Sigma-Aldrich (St. Louis, Mo., United States). All antibodies were diluted 1:500, except for β-actin antibody (1:50,000 dilution). In FIG. 8, H929 cells were treated with Compound I-9 or DMSO at 1 μM concentration for 24 hours. Lysates were then obtained and immunoblot was performed using antibodies against PARP, YAP1, PUMA, BAX. p21, and GAPDH.
In FIGS. 26A-26J, MM.1S cells were treated with Compound I-6, Compound I-31, Compound I-30, Compound I-22, Compound I-27, Compound I-1, Compound I-23, Compound I-13, Compound I-28, Compound I-9, or DMSO at 1 μM and 10 μM concentrations for 6 hours. Lysates were then obtained and immunoblot was performed using antibodies against MOB1 and p-MOB1. As shown from FIGS. 26A-26J, Compound I-22, Compound I-27, Compound I-1, Compound I-23, Compound I-13, Compound I-28, and Compound I-9 reduced PMOB1 levels at different concentrations.

DNAPK = DNAPK (Homo sapiens (Human), UniProt P78527); experiment: KiNativ assay; format: binding; conditions: H929 live cell; for % inhibition (range): 10 μM
Procedure: (§1) Biochemical IC50s of the compounds of the present disclosure against various kinases were measured in a KiNativ assay. Compounds were screened in duplicate at 10 μM in H929 live cell. IC50 was measured via Mass spectroscopy (MS).

ROCK1, ROCK2 = experiment: KiNativ assay; format: binding; conditions: H929 live cell; for % inhibition (range): 10 μM
Method in brief: (§2)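 Screening used intact H929 cells treated with each compound at 10 μM in duplicate; KiNativ labelling followed, and MS quantitation yielded IC50.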

QSK = QSK (Homo sapiens (Human), UniProt Q9Y2K2); experiment: KiNativ assay; format: binding; conditions: H929 live cell
Method in brief: as §2

CDK9 = CDK9 (Homo sapiens (Human), UniProt P50750); experiment: KiNativ assay; format: binding; conditions: H929 live cell
Method in brief: as §2

CaMK4 = CaMK4 (Homo sapiens (Human), UniProt Q16566); experiment: KiNativ assay; format: binding; conditions: H929 live cell
Method in brief: as §2

ZC3/MINK = ZC3/MINK (Homo sapiens (Human), UniProt Q8N4C8); experiment: KiNativ assay; format: binding; conditions: H929 live cell
Method in brief: as §2

CLK3 = CLK3 (Homo sapiens (Human), UniProt P49761); experiment: KiNativ assay; format: binding; conditions: H929 live cell
Method in brief: as §2

PCTAIRE1 = PCTAIRE1 (Homo sapiens (Human), UniProt Q00536); experiment: KiNativ assay; format: binding; conditions: H929 live cell
Method in brief: as §2

MLK4 = MLK4 (Homo sapiens (Human), UniProt Q5TCX8); experiment: KiNativ assay; format: binding; conditions: H929 live cell
Method in brief: as §2

LATS2 = LATS2 (Homo sapiens (Human), UniProt Q9NRM7); experiment: KiNativ assay; format: binding; conditions: H929 live cell
Method in brief: as §2

MELK = MELK (Homo sapiens (Human), UniProt Q14680); experiment: KiNativ assay; format: binding; conditions: H929 live cell
Method in brief: as §2

Erk5 = Erk5 (Homo sapiens (Human), UniProt Q13164); experiment: KiNativ assay; format: binding; conditions: H929 live cell
Method in brief: as §2

CDK6 = CDK6 (Homo sapiens (Human), UniProt Q00534); experiment: KiNativ assay; format: binding; conditions: H929 live cell
Procedure: as §1

[1] = range class, read-out: % inhibition

DNAPK, sequence (P78527 whole entry): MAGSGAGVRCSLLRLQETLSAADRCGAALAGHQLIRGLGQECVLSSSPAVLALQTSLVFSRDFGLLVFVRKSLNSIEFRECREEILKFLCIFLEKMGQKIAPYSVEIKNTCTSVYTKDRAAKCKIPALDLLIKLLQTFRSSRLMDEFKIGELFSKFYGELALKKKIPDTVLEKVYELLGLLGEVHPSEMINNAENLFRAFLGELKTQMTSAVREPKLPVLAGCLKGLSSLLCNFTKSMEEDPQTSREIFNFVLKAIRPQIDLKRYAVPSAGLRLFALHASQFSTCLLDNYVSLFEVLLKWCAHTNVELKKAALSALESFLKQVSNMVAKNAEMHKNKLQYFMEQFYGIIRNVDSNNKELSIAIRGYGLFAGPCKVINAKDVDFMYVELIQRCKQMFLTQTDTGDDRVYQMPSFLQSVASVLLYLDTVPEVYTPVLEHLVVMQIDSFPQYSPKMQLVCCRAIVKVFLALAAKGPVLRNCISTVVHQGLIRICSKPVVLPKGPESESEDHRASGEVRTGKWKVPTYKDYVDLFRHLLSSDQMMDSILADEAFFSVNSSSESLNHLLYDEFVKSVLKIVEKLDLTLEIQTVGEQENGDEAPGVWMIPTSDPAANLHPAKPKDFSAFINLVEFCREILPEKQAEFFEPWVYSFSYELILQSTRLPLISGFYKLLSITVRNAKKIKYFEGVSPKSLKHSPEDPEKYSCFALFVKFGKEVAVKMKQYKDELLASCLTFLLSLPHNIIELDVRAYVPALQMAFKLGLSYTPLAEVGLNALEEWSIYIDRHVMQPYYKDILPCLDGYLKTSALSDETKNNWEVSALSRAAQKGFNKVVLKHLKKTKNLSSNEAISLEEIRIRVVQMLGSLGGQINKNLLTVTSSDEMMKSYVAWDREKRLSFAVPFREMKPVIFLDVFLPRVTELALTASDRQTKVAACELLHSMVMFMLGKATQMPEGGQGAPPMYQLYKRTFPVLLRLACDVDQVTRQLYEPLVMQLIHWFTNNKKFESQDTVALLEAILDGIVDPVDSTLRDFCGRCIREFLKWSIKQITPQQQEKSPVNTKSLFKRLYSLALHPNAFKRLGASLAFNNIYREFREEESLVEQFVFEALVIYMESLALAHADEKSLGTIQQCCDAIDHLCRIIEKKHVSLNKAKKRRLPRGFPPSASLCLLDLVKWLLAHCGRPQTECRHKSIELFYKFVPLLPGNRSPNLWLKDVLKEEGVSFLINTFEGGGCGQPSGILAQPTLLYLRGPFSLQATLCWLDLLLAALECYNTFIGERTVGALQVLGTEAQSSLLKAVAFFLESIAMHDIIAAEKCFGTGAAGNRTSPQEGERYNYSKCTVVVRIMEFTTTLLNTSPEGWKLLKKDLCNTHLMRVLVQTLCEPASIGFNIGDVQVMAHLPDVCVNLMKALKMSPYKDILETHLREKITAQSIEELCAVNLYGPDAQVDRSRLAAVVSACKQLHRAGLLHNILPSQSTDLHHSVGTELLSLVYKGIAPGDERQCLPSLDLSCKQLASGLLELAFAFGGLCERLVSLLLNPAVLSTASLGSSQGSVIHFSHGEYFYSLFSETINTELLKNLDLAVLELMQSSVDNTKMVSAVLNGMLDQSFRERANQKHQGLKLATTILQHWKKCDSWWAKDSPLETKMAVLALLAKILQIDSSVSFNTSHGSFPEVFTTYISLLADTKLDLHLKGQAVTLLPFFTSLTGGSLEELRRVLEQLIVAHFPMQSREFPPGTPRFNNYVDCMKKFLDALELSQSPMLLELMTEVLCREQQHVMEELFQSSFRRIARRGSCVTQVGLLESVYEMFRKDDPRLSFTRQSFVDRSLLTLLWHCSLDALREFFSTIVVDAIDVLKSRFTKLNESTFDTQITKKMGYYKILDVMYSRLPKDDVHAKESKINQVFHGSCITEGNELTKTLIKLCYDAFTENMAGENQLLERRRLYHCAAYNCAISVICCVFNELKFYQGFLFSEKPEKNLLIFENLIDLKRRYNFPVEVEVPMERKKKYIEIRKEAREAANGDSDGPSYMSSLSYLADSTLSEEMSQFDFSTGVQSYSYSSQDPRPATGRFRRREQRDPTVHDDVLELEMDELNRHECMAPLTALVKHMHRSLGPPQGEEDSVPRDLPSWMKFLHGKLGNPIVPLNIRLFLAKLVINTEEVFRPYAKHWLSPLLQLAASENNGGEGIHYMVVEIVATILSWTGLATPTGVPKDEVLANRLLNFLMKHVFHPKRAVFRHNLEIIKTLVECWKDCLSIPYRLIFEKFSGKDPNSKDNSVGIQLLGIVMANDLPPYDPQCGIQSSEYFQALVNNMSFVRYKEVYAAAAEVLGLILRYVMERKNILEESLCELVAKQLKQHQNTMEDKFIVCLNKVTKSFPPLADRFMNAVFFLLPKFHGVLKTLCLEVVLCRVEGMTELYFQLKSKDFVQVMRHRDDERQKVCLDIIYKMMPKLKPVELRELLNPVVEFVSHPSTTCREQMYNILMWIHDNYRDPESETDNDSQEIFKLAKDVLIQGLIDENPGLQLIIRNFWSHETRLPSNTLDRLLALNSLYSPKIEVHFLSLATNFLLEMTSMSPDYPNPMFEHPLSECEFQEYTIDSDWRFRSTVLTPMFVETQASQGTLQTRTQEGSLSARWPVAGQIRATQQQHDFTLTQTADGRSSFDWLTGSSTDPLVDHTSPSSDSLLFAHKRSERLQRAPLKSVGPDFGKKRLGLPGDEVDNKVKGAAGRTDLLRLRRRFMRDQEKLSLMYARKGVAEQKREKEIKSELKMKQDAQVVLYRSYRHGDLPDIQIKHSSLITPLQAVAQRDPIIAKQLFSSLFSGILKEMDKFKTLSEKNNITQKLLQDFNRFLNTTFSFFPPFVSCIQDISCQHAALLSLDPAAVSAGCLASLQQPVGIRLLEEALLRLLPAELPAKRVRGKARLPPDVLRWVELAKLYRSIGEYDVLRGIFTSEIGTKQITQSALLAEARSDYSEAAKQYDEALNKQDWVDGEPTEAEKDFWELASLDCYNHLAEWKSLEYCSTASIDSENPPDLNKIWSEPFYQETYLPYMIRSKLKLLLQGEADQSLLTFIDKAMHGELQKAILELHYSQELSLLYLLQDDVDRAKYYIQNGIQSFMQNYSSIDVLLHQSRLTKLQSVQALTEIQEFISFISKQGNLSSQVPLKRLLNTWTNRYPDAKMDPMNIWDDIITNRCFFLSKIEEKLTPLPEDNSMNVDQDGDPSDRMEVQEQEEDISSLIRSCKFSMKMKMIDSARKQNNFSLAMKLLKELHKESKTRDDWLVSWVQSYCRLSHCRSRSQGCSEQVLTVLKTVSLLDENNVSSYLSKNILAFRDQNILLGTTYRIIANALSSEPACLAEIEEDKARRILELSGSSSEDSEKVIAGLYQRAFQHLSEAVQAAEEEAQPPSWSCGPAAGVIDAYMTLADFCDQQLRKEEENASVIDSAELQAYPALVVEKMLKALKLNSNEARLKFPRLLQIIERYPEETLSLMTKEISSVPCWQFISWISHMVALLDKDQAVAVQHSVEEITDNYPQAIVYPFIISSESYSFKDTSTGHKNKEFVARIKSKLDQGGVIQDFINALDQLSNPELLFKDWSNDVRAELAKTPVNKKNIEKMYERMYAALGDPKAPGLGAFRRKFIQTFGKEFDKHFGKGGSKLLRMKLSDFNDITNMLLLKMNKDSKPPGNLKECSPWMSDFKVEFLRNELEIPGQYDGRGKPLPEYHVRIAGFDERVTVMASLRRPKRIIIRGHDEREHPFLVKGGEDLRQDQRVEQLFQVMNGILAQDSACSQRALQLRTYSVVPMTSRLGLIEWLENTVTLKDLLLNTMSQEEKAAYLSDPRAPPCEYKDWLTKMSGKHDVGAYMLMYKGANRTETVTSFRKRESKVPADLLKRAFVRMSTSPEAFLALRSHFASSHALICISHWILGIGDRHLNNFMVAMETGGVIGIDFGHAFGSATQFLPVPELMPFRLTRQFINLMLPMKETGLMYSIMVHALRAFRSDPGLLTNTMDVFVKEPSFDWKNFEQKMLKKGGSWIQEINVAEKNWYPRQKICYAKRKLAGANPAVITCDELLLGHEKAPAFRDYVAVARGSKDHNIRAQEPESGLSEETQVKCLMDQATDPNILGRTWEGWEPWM
MELK, sequence (Q14680 whole entry): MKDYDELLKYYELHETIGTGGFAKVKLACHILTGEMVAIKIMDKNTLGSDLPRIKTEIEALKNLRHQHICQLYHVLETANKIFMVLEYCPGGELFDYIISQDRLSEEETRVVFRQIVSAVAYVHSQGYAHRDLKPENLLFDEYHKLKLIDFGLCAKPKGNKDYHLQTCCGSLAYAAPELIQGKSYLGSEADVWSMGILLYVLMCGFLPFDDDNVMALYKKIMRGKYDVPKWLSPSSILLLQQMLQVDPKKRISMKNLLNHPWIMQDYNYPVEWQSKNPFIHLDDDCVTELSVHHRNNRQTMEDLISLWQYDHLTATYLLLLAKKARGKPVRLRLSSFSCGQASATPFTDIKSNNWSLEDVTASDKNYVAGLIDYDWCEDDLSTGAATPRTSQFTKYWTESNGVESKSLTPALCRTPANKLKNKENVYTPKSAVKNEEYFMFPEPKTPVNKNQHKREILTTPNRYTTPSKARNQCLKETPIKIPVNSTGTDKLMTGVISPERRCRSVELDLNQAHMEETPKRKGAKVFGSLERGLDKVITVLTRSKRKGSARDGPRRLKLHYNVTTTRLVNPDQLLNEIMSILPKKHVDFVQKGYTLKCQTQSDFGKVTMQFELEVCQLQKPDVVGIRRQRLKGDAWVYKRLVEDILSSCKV
CDK6, sequence (Q00534 whole entry): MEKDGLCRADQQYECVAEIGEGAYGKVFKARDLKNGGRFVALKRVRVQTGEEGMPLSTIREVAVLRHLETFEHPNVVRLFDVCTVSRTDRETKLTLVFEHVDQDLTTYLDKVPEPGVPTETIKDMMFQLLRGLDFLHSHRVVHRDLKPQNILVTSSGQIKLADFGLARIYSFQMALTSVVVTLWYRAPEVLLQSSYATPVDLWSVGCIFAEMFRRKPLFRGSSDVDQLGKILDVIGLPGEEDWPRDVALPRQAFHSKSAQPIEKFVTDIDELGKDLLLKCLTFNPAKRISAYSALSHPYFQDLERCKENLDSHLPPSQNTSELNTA

Structure (SMILES): Nc1ncc(-c2cc([N+](=O)[O-])ccc2F)cc1-c1ccc2c(c1)CCNC2=O [Compound I-1, 6-(2-amino-5-(2-fluoro-5-nitrophenyl)pyridin-3-yl)-3,4-dihydroisoquinolin-1(2H)-one]
- IC50 (STK3 (MST2)): 40 to 200 nM
- PMOB1 levels (p-MOB1): reduced

Structure (SMILES): Nc1ncc(-c2cccc([N+](=O)[O-])c2F)cc1-c1ccc2c(c1)CCNC2=O [Compound I-9, 6-(2-amino-5-(2-fluoro-3-nitrophenyl)pyridin-3-yl)-3,4-dihydroisoquinolin-1(2H)-one]
- IC50 (STK3 (MST2)): < 40 nM
- PMOB1 levels (p-MOB1): reduced
- % inhibition (range) (DNAPK): >90%
- inhibition (10 μM) (DNAPK): 94.0%
- inhibition at 10 µM (DNAPK; read-out: % inhibition (range)): 75 to 90%
- inhibition at 10 µM (DNAPK; read-out: inhibition (10 μM)): 79.4%
- % inhibition (range) (ROCK1, ROCK2): 0.0%
- inhibition (10 μM) (ROCK1, ROCK2): −55.8%
- inhibition at 10 µM (QSK; read-out: % inhibition (range)): 50 to 75%
- inhibition at 10 µM (QSK; read-out: inhibition (10 μM)): 72.8%
- inhibition at 10 µM (CDK9; read-out: % inhibition (range)): 50 to 75%
- inhibition at 10 µM (CDK9; read-out: inhibition (10 μM)): 65.8%

Structure (SMILES): Nc1ncc(-c2cccc3ncsc23)cc1-c1ccc2c(c1)CCNC2=O [Compound I-13, 6-(2-amino-5-(benzo[d]thiazol-7-yl)pyridin-3-yl)-3,4-dihydroisoquinolin-1(2H)-one]
- IC50 (STK3 (MST2)): 40 to 200 nM
- PMOB1 levels (p-MOB1): reduced
- % inhibition (range) (DNAPK): 50-75%
- inhibition (10 μM) (DNAPK): 59.4%
- inhibition at 10 µM (DNAPK; read-out: % inhibition (range)): 35 to 50%
- inhibition at 10 µM (DNAPK; read-out: inhibition (10 μM)): 44.7%
- % inhibition (range) (ROCK1, ROCK2): 0.0%
- inhibition (10 μM) (ROCK1, ROCK2): −11.4%
- inhibition at 10 µM (QSK; read-out: % inhibition (range)): 35 to 50%
- inhibition at 10 µM (QSK; read-out: inhibition (10 μM)): 47.8%
- inhibition at 10 µM (CDK9; read-out: % inhibition (range)): 35 to 50%
- inhibition at 10 µM (CDK9; read-out: inhibition (10 μM)): 41.1%

Structure (SMILES): CN(C1CC1)S(=O)(=O)c1ccc(-c2cnc(N)c(-c3ccc4c(c3)CCNC4=O)c2)c(F)c1 [Compound I-28, 4-(6-amino-5-(1-oxo-1,2,3,4-tetrahydroisoquinolin-6-yl)pyridin-3-yl)-N-cyclopropyl-3-fluoro-N-methylbenzenesulfonamide]
- IC50 (STK3 (MST2)): < 40 nM
- PMOB1 levels (p-MOB1): reduced
- inhibition (10 μM) (DNAPK): 42.6% and 82.1%
- % inhibition (range) (ROCK1, ROCK2): 0.0%
- inhibition (10 μM) (ROCK1, ROCK2): 20.8%
- inhibition at 10 µM (QSK; read-out: % inhibition (range)): 0%
- inhibition at 10 µM (QSK; read-out: inhibition (10 μM)): 30.1%
- inhibition at 10 µM (CDK9; read-out: % inhibition (range)): 0%
- inhibition at 10 µM (CDK9; read-out: inhibition (10 μM)): 28.9%

Structure (SMILES): COc1cc(NS(=O)(=O)C2CC2)ccc1-c1cnc(N)c(-c2ccc3c(c2)CCNC3=O)c1 [Compound I-50, N-(4-(6-amino-5-(1-oxo-1,2,3,4-tetrahydroisoquinolin-6-yl)pyridin-3-yl)-3-methoxyphenyl) cyclopropanesulfonamide]
- inhibition at 10 µM (CaMK4; [1]): 0%
- inhibition at 10 µM (CaMK4; read-out: inhibition (10 μM)): -17.9%
- inhibition at 10 µM (DNAPK; [1]): 0%
- inhibition at 10 µM (ZC3/MINK; [1]): 50 to 75%
- inhibition at 10 µM (ZC3/MINK; read-out: inhibition (10 μM)): 57.6%
- inhibition at 10 µM (CLK3; [1]): 0%
- inhibition at 10 µM (CLK3; read-out: inhibition (10 μM)): 1.5%
- inhibition at 10 µM (PCTAIRE1; [1]): 0%
- inhibition at 10 µM (PCTAIRE1; read-out: inhibition (10 μM)): -15.6%
- inhibition at 10 µM (MLK4; [1]): 0%
- inhibition at 10 µM (MLK4; read-out: inhibition (10 μM)): 30.2%
- inhibition at 10 µM (LATS2; [1]): 0%
- inhibition at 10 µM (LATS2; read-out: inhibition (10 μM)): 1.1%
- inhibition at 10 µM (MELK; [1]): 35 to 40%
- inhibition at 10 µM (MELK; read-out: inhibition (10 μM)): 45.9%
- inhibition at 10 µM (Erk5; [1]): 0%
- inhibition at 10 µM (Erk5; read-out: inhibition (10 μM)): -2.8%
- inhibition at 10 µM (CDK6; [1]): 0%
- inhibition at 10 µM (CDK6; read-out: inhibition (10 μM)): 15%

Structure (SMILES): Nc1ncc(-c2ccc(NS(=O)(=O)C3CC3)cc2F)cc1-c1ccc2c(c1)CCNC2=O [Compound I-51, N-(4-(6-amino-5-(1-oxo-1,2,3,4-tetrahydroisoquinolin-6-yl)pyridin-3-yl)-3-fluorophenyl) cyclopropanesulfonamide]
- inhibition at 10 µM (CaMK4; [1]): 0%
- inhibition at 10 µM (CaMK4; read-out: inhibition (10 μM)): -61.2%
- inhibition at 10 µM (ZC3/MINK; [1]): 50 to 75%
- inhibition at 10 µM (ZC3/MINK; read-out: inhibition (10 μM)): 63.4%
- inhibition at 10 µM (CLK3; [1]): 0%
- inhibition at 10 µM (CLK3; read-out: inhibition (10 μM)): 23.3%
- inhibition at 10 µM (PCTAIRE1; [1]): 0%
- inhibition at 10 µM (PCTAIRE1; read-out: inhibition (10 μM)): -0.2%
- inhibition at 10 µM (MLK4; [1]): 0%
- inhibition at 10 µM (MLK4; read-out: inhibition (10 μM)): 14.2%
- inhibition at 10 µM (LATS2; [1]): 0%
- inhibition at 10 µM (LATS2; read-out: inhibition (10 μM)): 16.1%
- inhibition at 10 µM (MELK; [1]): 35 to 40%
- inhibition at 10 µM (MELK; read-out: inhibition (10 μM)): 49.5%
- inhibition at 10 µM (Erk5; [1]): 0%
- inhibition at 10 µM (Erk5; read-out: inhibition (10 μM)): -13.2%
- inhibition at 10 µM (CDK6; [1]): 0%
- inhibition at 10 µM (CDK6; read-out: inhibition (10 μM)): 10.7%

Structure (SMILES): Nc1ncc(-c2ccc(NS(=O)(=O)C3CC3)cc2OC2CCCCC2)cc1-c1ccc2c(c1)CCNC2=O [Compound I-65, N-(4-(6-amino-5-(1-oxo-1,2,3,4-tetrahydroisoquinolin-6-yl)pyridin-3-yl)-3-(cyclohexyloxy)phenyl) cyclopropanesulfonamide]
- inhibition at 10 µM (CaMK4; [1]): 0%
- inhibition at 10 µM (CaMK4; read-out: inhibition (10 μM)): -21%
- inhibition at 10 µM (ZC3/MINK; [1]): 50 to 75%
- inhibition at 10 µM (ZC3/MINK; read-out: inhibition (10 μM)): 66.6%
- inhibition at 10 µM (CLK3; [1]): 35 to 40%
- inhibition at 10 µM (CLK3; read-out: inhibition (10 μM)): 40%
- inhibition at 10 µM (PCTAIRE1; [1]): 0%
- inhibition at 10 µM (PCTAIRE1; read-out: inhibition (10 μM)): 9%
- inhibition at 10 µM (MLK4; [1]): 50 to 75%
- inhibition at 10 µM (MLK4; read-out: inhibition (10 μM)): 56.9%
- inhibition at 10 µM (LATS2; [1]): 0%
- inhibition at 10 µM (LATS2; read-out: inhibition (10 μM)): -0.2%
- inhibition at 10 µM (MELK; [1]): 50 to 75%
- inhibition at 10 µM (MELK; read-out: inhibition (10 μM)): 56.5%
- inhibition at 10 µM (Erk5; [1]): 0%
- inhibition at 10 µM (Erk5; read-out: inhibition (10 μM)): -6.5%
- inhibition at 10 µM (CDK6; [1]): 0%
- inhibition at 10 µM (CDK6; read-out: inhibition (10 μM)): 0.5%
